The values below come from patent publication US12534450B2, “Methods and compositions for targeting PD-L1” (Aligos Therapeutics, Inc., priority 2021, dated 2026).

One assay has as its target PD-1/PD-L1 PPI (Homo sapiens, UniProt Q9NZQ7). Description: PDL1/PD1 Binding Assay. The conditions noted are these: PDL1-6×His 0.3 nM, PD1-Fc-Avi-Biotin 2.5 nM, Acceptor/Donor beads, Envision reader. The method in brief:
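AlphaScreen competition: compound (1% DMSO) preincubated 30 min RT with PDL1-6×His (0.3 nM), then PD1-Fc-Avi-Biotin (2.5 nM) 30 min; anti-His acceptor and streptavidin donor beads (20 ug/mL each) added, 1 h each, dark up to overnight. Buffer 25 mM Hepes pH 7.4, 150 mM NaCl. IC50 by four-parameter fit.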

Another assay concerns PD-1/PD-L1 interaction. Nature of the assay: PD-1/PD-L1 NFAT Reporter Assay (co-culture of Jurkat T cells overexpressing PD-1 and PD-L1 expressing CHO cells). The conditions noted are these: Homo sapiens, Jurkat, 6 h, co-culture 6 hrs at 37° C., NFAT-mediated luciferase activity. The assay is classed as cell-based. The method in brief:
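Compounds added to CHO cells expressing surface anti-CD3 and PD-L1, then Jurkat cells with PD-1 and NFAT-driven luciferase seeded on top; co-culture 6 hrs at 37° C. Luminescence read after ONE-Glo addition, EC50 from dose-response fit.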

The structures appear in SMILES notation.

PD-1/PD-L1 PPI, sequence (Q9NZQ7 19-238 limits assumed): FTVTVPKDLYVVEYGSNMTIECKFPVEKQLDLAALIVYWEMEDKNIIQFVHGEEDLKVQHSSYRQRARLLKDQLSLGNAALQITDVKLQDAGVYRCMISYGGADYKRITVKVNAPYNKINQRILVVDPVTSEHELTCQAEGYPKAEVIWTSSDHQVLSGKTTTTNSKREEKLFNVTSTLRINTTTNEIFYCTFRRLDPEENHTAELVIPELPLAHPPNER

`COc1nc(-c2cccc(-c3cccc(NC(=O)c4cn(C)c(=O)n(C)c4=O)c3C)c2Cl)cc2c1[C@H](N1CC(O)C1)CC2` (single isomer, unassigned) [Compound A-28] had an IC50 at PD-1/PD-L1 PPI of at most 10 nM. The EC50 in the assay with PD-1/PD-L1 interaction was at most 10 nM.
`COc1nc(-c2ccc(F)c(-c3cccc(NC(=O)c4cn(C)c(=O)n(C)c4=O)c3C)c2F)cc2c1[C@@H](NC[C@@H]1CCC(=O)N1)CC2` [Compound A-67] gave a half-inhibitory concentration (IC50) on PD-1/PD-L1 PPI of at most 10 nM. Further, the EC50 in the assay on PD-1/PD-L1 interaction was at most 10 nM.
Compound `COCCOc1nc(-c2cccc(-c3cccc(NC(=O)c4cn(C)c(=O)n(C)c4=O)c3C)c2Cl)cc2c1[C@H](NC[C@@H]1CCC(=O)N1)CC2` (single isomer, unassigned) [Compound A-116] gave an IC50 at PD-1/PD-L1 PPI of at most 10 nM. The EC50 in the assay on PD-1/PD-L1 interaction fell in the range of 1000 to 10000 nM.
For `COc1nc(-c2cccc(-c3cc(F)cc(NC(=O)c4nn(C)c(=O)n(C)c4=O)c3C)c2Cl)cc2c1[C@@H](NC[C@@H]1CCC(=O)N1)CC2` [Compound A-62], on PD-1/PD-L1 PPI, the IC50 was at most 10 nM. The same compound displayed an EC50 in the assay with PD-1/PD-L1 interaction of at most 10 nM.
Regarding `COc1nc(-c2cccc(-c3cccc(NC(=O)c4nn(C)c(=O)n(C)c4=O)c3Cl)c2Cl)cc2c1[C@@H](N[C@@H]1CCOC[C@H]1O)CC2` (single isomer, unassigned) [Compound A-93], the IC50 on PD-1/PD-L1 PPI was at most 10 nM. In addition, in the assay on PD-1/PD-L1 interaction, the EC50 fell in the range of 100 to 1000 nM.
For `COc1nc(-c2cccc(-c3cccc(NC(=O)c4cn(C)c(=O)[nH]c4=O)c3C)c2Cl)cc2c1[C@@H](NC[C@@H]1CCC(=O)N1)CC2` [Compound A-56], the IC50 at PD-1/PD-L1 PPI was at most 10 nM. The compound also showed a concentration giving a half-maximal response (EC50) with PD-1/PD-L1 interaction of 10 to 100 nM.
In the same order, the values of `COc1nc(-c2cccc(-c3cccc(Nc4nccc5nccnc45)c3Cl)c2Cl)cc2c1[C@@H](NC[C@@H]1CCC(=O)N1)CC2` [Compound B-4] are at most 10 nM and 10 to 100 nM.
On the same counts, the results for `COc1nc(-c2cccc(-c3cc(F)cc(NC(=O)c4cn(C)c(=O)n(C)c4=O)c3Cl)c2Cl)cc2c1[C@@H](NC[C@@H]1CCC(=O)N1)CC2` [Compound A-65] are at most 10 nM and at most 10 nM.
On the same counts, the results for `COc1nc(-c2cccc(-c3cccc(NC(=O)c4cn(C)c(=O)n(C)c4=O)c3Cl)c2Cl)cc2c1[C@@H](N1CC3(COCC(=O)N3)C1)CC2` (single isomer, unassigned) [Compound A-133] are 10 to 100 nM and 100 to 1000 nM.

The IC50 is the point on the concentration scale where inhibition reaches its midpoint. Low values mean greater potency in that assay, high ones weaker potency in that assay. One may read the EC50 as the concentration needed to bring the measured effect to its halfway point.
